Patent publication US7935700B2, “Morpholine compound” (Mitsubishi Tanabe Pharma Corporation, priority 2004, dated 2011)
pIC50: −log10 of the molar value. Counter-ions that a name gives are not always drawn. Like-named read-outs stand apart in the source and are kept apart here.

Tests used:
CCR3 = molecular target: T1, CCR3 (Homo sapiens, UniProt P51677); assay: Effect on intracellular calcium concentration in eosinophils upon CCL11 stimulation; type: cell-based; settings: peripheral blood eosinophils of healthy subject, agonist CCL11 1.0 nmol/L, compound 3 min before stimulation, Fura-2 AM; read-out: IC50 (50% suppression of the increase in the intracellular calcium concentration)
T1 construct: Eosinophils separated from peripheral blood of healthy subject; endogenous in cells; host or cells: eosinophils separated from peripheral blood of healthy subject
T1 sequence (P51677 1-355): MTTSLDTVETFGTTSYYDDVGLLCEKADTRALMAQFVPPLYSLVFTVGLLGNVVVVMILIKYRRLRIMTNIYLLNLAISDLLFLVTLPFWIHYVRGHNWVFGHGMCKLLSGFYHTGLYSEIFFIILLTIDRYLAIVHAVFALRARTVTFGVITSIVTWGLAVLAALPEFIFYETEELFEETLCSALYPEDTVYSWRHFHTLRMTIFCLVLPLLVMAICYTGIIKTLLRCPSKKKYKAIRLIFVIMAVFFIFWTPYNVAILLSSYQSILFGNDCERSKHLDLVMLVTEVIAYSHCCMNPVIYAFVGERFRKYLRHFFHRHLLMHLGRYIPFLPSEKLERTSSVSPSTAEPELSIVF
Procedure: Effect on Intracellular Calcium Concentration
The effect of the compound of the present invention on intracellular calcium mobilization in peripheral blood eosinophils of healthy subject upon CCL11 stimulation was examined by the following method.
Eosinophils separated from peripheral blood of healthy subject were suspended in 0.5% bovine serum albumin-containing phosphate buffered saline, and incubated at 37° C. for 45 min in the presence of 5 μmol/L of Fura-2 AM (manufactured by DOJINDO LABORATORIES).
After incubation, the cells were washed 3 times with a measurement buffer (10 mmol/L HEPES, and 0.5% bovine serum albumin-containing hanks' balanced salt solution) to remove Fura-2 AM that was not incorporated into the cells.
Finally, the cells were adjusted to 1×10^6 cells/mL with the measurement buffer and preserved in a dark place until measurement. The intracellular calcium was measured using FDSS3000 manufactured by Hamamatsu Photonics K.K. In other words, the cell suspension (0.1 mL) loaded with Fura-2 AM was placed in a 96 well plate for measurement, the fluorescence intensity to the excitation light at wavelengths 340 nm and 380 nm was measured by FDSS3000, the ratio of the fluorescence intensity to the excitation light at these two wavelengths was determined, based on which the intracellular calcium concentration was calculated. As the agonist, used was CCL11 (1.0 nmol/L), which is a CCR3 selective ligand, and the antagonistic activity was determined as 50% suppression rate (IC50 value) of the increase in the intracellular calcium concentration, when eosinophils were treated with various concentrations of the compound of the present invention at 3 min before agonist stimulation.

human eosinophils = assay: Binding inhibitory test of chemokine ([125I]-eotaxin) to human eosinophils; settings: 50 pmol/L [125I]-eotaxin, 2x10^5 eosinophils, 25°C, 1 hr; read-out: IC50 (concentration of test compound necessary for decreasing binding of [125I]-eotaxin to human eosinophils by 50%)
Procedure: Binding Inhibitory Test of Chemokine to Human Eosinophils
Human eosinophils were separated by the CD16 negative selection method from anticoagulation-treated peripheral blood of healthy subject (e.g., J. Immunol. Methods, vol. 145, pages 105-110, 1991). The separated eosinophils (2×10^5 cells), 50 pmol/L[^125I]-eotaxin (2000 Ci/mmoL, manufactured by Amersham Pharmacia Biotech) and a test compounds were mixed in 0.1 mL of binding buffer (50 mmol/L HEPES, 1 mmol/L CaCl2, 5 mmol/L MgCl2, 0.5% bovine serum albumin (BSA), 0.1% sodium azide, pH 7.4), and the mixture was incubated in a multiscreen plate (manufactured by MILLIPORE) at 25° C. for 1 hr. After incubation, the reaction mixture in the multiscreen plate was filtered by vacuum manifold, and washed with 0.6 mL of a cold washing buffer (50 mmol/L HEPES, 1 mmol/L CaCl2, 5 mmol/L MgCl2, 0.5 mol/L NaCl, 0.1% sodium azide, pH 7.4), and the radioactivity maintained on the filter was measured. […] The IC50 values (concentration of test compound necessary for decreasing binding of [^125I]-eotaxin to human eosinophils by 50%) of some of the compounds of the present invention were as follows.

[1] = system: mouse ovalbumin (OVA) induced allergic and biphasic ear edema; assay: Antigen (OVA) induced allergic and biphasic ear edema model; type: in vivo; settings: male BALB/c mice, oral once a day from 2 days before induction, 3 or 10 mg/kg tested
Procedure: 3: Effect on Antigen Induced Allergic and Biphasic Ear Edema Model
The in vivo effect of the compound of the present invention was examined using a mouse ovalbumin (OVA) induced allergic and biphasic ear edema model. The model was prepared according to the method of Sugawara et al. (Allergy & Clinical Immunology International, Supplement No. 2, P 785, 2000). In other words, male BALB/c mice were immunized by intraperitoneal injection with 10 μg of OVA and 1 mg of aluminum hydroxide gel (Alum). At 14 days after immunization, OVA (5 μg) were subcutaneously injected to the both ears of the mouse, whereby ear edema was induced. The thickness of the ears was measured using a dial sickness gauge immediately before subcutaneous injection and 1 and 24 hrs after subcutaneous injection of OVA. The compound of the present invention was suspended in a vehicle, 0.5% hydroxypropylmethyl cellulose solution, and orally administered at 3 mg/kg or 10 mg/kg once a day using an orally gavage needle from 2 days before ear edema induction.

[2] = ear thickness 1 hr after OVA, read-out: Dose that showed a significant suppressive action vs vehicle, Immediate phase
[3] = ear thickness 24 hrs after OVA, read-out: Dose that showed a significant suppressive action vs vehicle, Late phase

Row | SMILES | pIC50 (CCR3) | pIC50 (human eosinophils) | minimal effective dose [1, 2] | minimal effective dose [1, 3]
1 | Cc1nc(-c2csc(SCC(=O)NC[C@H]3CN(Cc4ccc(Cl)c(Cl)c4)CCO3)n2)no1 [Example 23, (2S)-N-{[4-(3,4-dichlorobenzyl)morpholin-2-yl]methyl}-[4-(5-methyl-1,2,4-oxadiazol-3-yl)thiazol-2-ylthio]acetamide hydrochloride] | 9.10 | 9.00 |  | 
2 | Nc1ccc2c(c1)-c1nc(SCC(=O)NC[C@H]3CN(Cc4ccc(Cl)c(Cl)c4)CCO3)sc1C2 [Example 27, (2S)-(5-amino-8H-indeno[1,2-d]thiazol-2-ylthio)-N-{[4-(3,4-dichlorobenzyl)morpholin-2-yl]methyl}acetamide] |  | 8.64 |  | 
3 | Nc1cccc(-c2csc(SCC(=O)NC[C@H]3CN(Cc4ccc(Cl)c(Cl)c4)CCO3)n2)c1 [Example 9, (2S)-[4-(3-aminophenyl)thiazol-2-ylthio]-N-{[4-(3,4-dichlorobenzyl)morpholin-2-yl]methyl}acetamide] |  | 7.90 |  | 
4 | COc1ccc(-c2csc(SCC(=O)NC[C@H]3CN(Cc4ccc(Cl)c(Cl)c4)CCO3)n2)cc1OC [Example 13, (2S)-N-{[4-(3,4-dichlorobenzyl)morpholin-2-yl]methyl}-[4-(3,4-dimethoxyphenyl)thiazol-2-ylthio]acetamide] |  | 9.40 |  | 
5 | O=C(O)Cc1csc(SCC(=O)NC[C@H]2CN(Cc3ccc(Cl)c(Cl)c3)CCO2)n1 [Example 2, (2S)-[4-(carboxymethyl)thiazol-2-ylthio]-N-{[4-(3,4-dichlorobenzyl)morpholin-2-yl]methyl}acetamide] | 8.74 | 8.62 | 3 mg/kg | 3 mg/kg
6 | NC(=O)CNC(=O)c1csc(SCC(=O)NC[C@H]2CN(Cc3ccc(Cl)c(Cl)c3)CCO2)n1 [Example 17, (2S)-{4-[(2-amino-2-oxoethyl)aminocarbonyl]thiazol-2-ylthio}-N-{[4-(3,4-dichlorobenzyl)morpholin-2-yl]methyl}acetamide] | 8.60 | 9.05 | 3 mg/kg | 3 mg/kg
7 | O=C(CSc1nc(-c2ccncc2)cs1)NC[C@H]1CN(Cc2ccc(Cl)c(Cl)c2)CCO1 [Example 11, (2S)-N-{[4-(3,4-dichlorobenzyl)morpholin-2-yl]methyl}-[4-(pyridin-4-yl)thiazol-2-ylthio]acetamide] |  | 9.10 |  | 
8 | NC(=O)c1cc(-c2csc(SCC(=O)NC[C@H]3CN(Cc4ccc(Cl)c(Cl)c4)CCO3)n2)ccc1O [Example 10, (2S)-[4-(3-carbamoyl-4-hydroxyphenyl)thiazol-2-ylthio]-N-{[4-(3,4-dichlorobenzyl)morpholin-2-yl]methyl}acetamide] |  | 8.62 |  | 
9 | O=C(CSc1ccc(C(=O)O)cc1)NC[C@H]1CN(Cc2ccc(Cl)c(Cl)c2)CCO1 [Example 37, (2S)-(4-carboxyphenylthio)-N-{[4-(3,4-dichlorobenzyl)morpholin-2-yl]methyl}acetamide] | 8.31 | 7.46 | 3 mg/kg | 3 mg/kg
10 | NC(=O)c1csc(SCC(=O)NC[C@H]2CN(Cc3ccc(Cl)c(Cl)c3)CCO2)n1 [Example 15, (2S)-(4-carbamoylthiazol-2-ylthio)-N-{[4-(3,4-dichlorobenzyl)morpholin-2-yl]methyl}acetamide] | 8.80 | 9.40 |  | 
